From publication PMC7672476, “Structural basis of Mfd-dependent transcription termination” (Nucleic Acids Research, 2020)

Target: T1, T. thermophilus Mfd (Thermus thermophilus, UniProt Q72KB4)
T1 construct: full-length, N-terminal hexahistidine tag, plasmid pET28a-NH-TthMfd, expressed in E. coli BL21(DE3)
T1 sequence (Q72KB4 1-978): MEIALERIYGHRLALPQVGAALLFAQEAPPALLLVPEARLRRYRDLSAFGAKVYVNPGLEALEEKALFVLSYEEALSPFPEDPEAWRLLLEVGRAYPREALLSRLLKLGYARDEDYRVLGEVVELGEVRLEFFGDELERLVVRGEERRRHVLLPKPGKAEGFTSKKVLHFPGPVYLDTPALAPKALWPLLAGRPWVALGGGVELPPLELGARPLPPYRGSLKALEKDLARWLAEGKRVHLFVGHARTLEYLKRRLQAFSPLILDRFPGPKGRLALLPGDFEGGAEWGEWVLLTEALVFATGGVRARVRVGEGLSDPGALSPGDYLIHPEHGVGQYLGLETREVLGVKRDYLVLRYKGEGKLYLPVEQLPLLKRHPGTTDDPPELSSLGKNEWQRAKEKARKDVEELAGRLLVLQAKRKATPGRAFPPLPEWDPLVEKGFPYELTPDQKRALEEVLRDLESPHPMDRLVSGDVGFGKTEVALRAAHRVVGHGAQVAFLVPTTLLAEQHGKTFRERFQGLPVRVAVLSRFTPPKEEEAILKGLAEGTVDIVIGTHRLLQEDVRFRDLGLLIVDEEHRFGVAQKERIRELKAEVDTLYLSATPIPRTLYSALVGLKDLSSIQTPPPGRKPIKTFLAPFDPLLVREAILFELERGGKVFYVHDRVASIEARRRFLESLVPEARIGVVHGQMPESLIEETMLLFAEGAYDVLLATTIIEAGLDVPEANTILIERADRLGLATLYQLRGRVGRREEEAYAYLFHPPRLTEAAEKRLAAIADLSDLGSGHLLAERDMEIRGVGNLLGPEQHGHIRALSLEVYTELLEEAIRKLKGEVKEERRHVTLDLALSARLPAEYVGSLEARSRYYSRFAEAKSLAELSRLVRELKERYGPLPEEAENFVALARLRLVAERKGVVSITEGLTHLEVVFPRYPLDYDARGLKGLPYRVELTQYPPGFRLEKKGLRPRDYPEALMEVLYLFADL
Assay: colorimetric phosphate release ATPase assay
Type: biochemical
Conditions: 10 mM MgCl2, 0.1 M KCl, pH 7.9, 37°C; 0.4-2 mM ATP

## Nc1ncnc2c1ncn2[C@@H]1O[C@H](COP(=O)(O)OP(=O)(O)OP(=O)(O)O)[C@@H](O)[C@H]1O [ATP]
  colorimetric phosphate release ATPase assay: ATPase activity assay verified that T. thermophilus Mfd hydrolyzed ATP
